IC50 data for ten molecules are collected here from BindingDB's records for doi:10.1021/jm00147a030 (1985).

The target of this experiment is Angiotensin-converting enzyme (Cavia porcellus). The experiment in a line: In vitro inhibitory activity against Angiotensin I converting enzyme from unpurified guinea pig serum.
Molecule `CCOC(=O)C(CCc1ccccc1)SC(C)C(=O)N1CCCC1C(=O)O` (stereo not given) returned an IC50 of 2900 nM.
`CC(OC(CCc1ccccc1)C(=O)O)C(=O)N1Cc2ccccc2CC1C(=O)O` (stereo not given) showed an IC50 of 86 nM.
`CCOC(=O)C(CCc1ccccc1)OC(C)C(=O)N1Cc2ccccc2CC1C(=O)O` (stereo not given) had a 50% inhibitory concentration (IC50) of 14 nM.
`CCOC(=O)C(CCc1ccccc1)OC(C)C(=O)N1C(C(=O)O)CC2CCCCC21` (stereo not given) returned an IC50 of 24 nM.
In turn, `CC(SC(CCc1ccccc1)C(=O)O)C(=O)N1C2CCCCC2C[C@H]1C(=O)O` (stereo not given in full) registered a half-maximal inhibitory concentration (IC50) of 140 nM.
In the case of `CCOC(=O)C(CCc1ccccc1)OC(C)C(=O)N1CCCC1C(=O)O` (stereo not given) it was 220 nM; in that of `CCOC(=O)C(CCc1ccccc1)[S+]([O-])C(C)C(=O)N1C2CCCCC2C[C@H]1C(=O)O` (stereo not given in full), 220 nM; in that of `CC(SC(CCc1ccccc1)C(=O)O)C(=O)N1CCC[C@H]1C(=O)O` (stereo not given in full), 580 nM.
`CCOC(=O)C(CCc1ccccc1)SC(C)C(=O)N1Cc2ccccc2C[C@H]1C(=O)O` (stereo not given in full): half-maximal inhibition (IC50) was put at 460 nM.
To `CCOC(=O)C(CCc1ccccc1)SC(C)C(=O)N1CSC[C@@H]1C(=O)O` (stereo not given in full) belongs 4800 nM.

The IC50 is the midpoint of a concentration-inhibition curve.
